Data set [1] can be described thus: Toxicity in C57BL/6N mouse assessed as body weight change at 1.5 to 15 mg/kg, po bid treated for 7 days. In kind it is organism-based. The conditions noted are these: in vivo, 168 h, dose 1.5-15 mg/kg, time 7 day.
For data set [2], the system named is Mus musculus. The data set is described as follows: Effect on time spent in central zone of C57BL/6N mouse at 100 mg/kg, po treated for 14 days by locomotor activity test. The following applies: time 14.0 day. In kind it is functional, organism-based.
A short description of data set [3]: Drug uptake in Sprague-Dawley rat lung at 20 mg/kg, po measured at 2 hrs by LC-MS/MS analysis. In kind it is ADME, organism-based. The conditions noted are these: read-out: Drug uptake.
Data set [4] can be described thus: Reduction in serotonin level in C57BL/6N mouse duodenum at 15 mg/kg, po bid treated for 7 days by HPLC analysis relative to control. It counts as functional. The conditions noted are these: 168 h, time 7 day.
Data set [5] in a line: AUMCExtra in Sprague-Dawley rat at 10 mg/kg, iv measured upto 1440 mins by LC-MS/MS analysis. In kind it is ADME, organism-based. The conditions noted are these: in vivo, 24 h.
For data set [6], the target named is Cytochrome P450 2D6 (Homo sapiens, UniProt P10635). The data set is described as follows: Inhibition of CYP2D6 in human liver microsome using dextromethorphan as substrate measured upto 50 uM incubated for 10 mins followed by NADPH addition incubated for 10 mins by LC/MS/MS analysis. It counts as ADME. The conditions noted are these: microsomes, 20 min. On the technique in general: Microsomes from liver hold many membrane-bound enzymes, among them those of drug oxidation.

Data set [7] concerns Mus musculus. The data set can be described thus: Effect on total duration of immobility in C57BL/6N mouse at 50 mg/kg, po treated for 14 days by tail suspension test. It counts as functional, organism-based. The conditions noted are these: time 14.0 day.
The nature of data set [8]: AUC (0 to last) in Sprague-Dawley rat at 50 mg/kg, po measured upto 1440 mins by LC-MS/MS analysis. In kind it is ADME, organism-based. Also on record: dose 50 mg/kg, time < 1440 min, route po. The conditions noted are these: in vivo.
Data set [9] has as its system Mus musculus. The data set can be described thus: Effect on total duration of immobility in C57BL/6N mouse at 10 mg/kg, po treated for 14 days by tail suspension test. The conditions noted are these: time 14.0 day. In kind it is functional, organism-based.
For data set [10], the system named is Mus musculus. The data set can be described thus: Effect on time spent in central zone of C57BL/6N mouse at 20 mg/kg, po treated for 14 days by locomotor activity test. It counts as functional, organism-based. The following applies: time 14.0 day.
Data set [11] concerns the target ATP-dependent translocase ABCB1 (Homo sapiens, UniProt P08183). The data set can be described thus: Inhibition of P-gp in human Caco-2 cells seeded in polyethylene membranes assessed as permeation in presence or absence of digoxin measured for 2 hrs by LC-MS/MS analysis based transporter assay. In kind it is cell-based. In general terms: Caco-2 cells form a polarised layer with tight junctions and transporters.

The subject of data set [12] is Mus musculus. The data set is described as follows: Effect on hedonic component behavior in C57BL/6N mouse at 50 mg/kg, po treated for 14 days by sucrose preference test. In kind it is functional, organism-based. The following applies: time 14.0 day.
A short description of data set [13]: MRT (0 to infinitive) in CD-1 (ICR) mouse at 50 mg/kg, po measured upto 1440 mins by LC-MS/MS analysis. It counts as ADME, organism-based. The following applies: in vivo.
A short description of data set [14]: Plasma concentration in Sprague-Dawley rat at 20 mg/kg, po measured at 0.5 hrs by LC-MS/MS analysis. It counts as ADME, organism-based.
The nature of data set [15]: Oral bioavailability in Sprague-Dawley rat at 20 mg/kg measured upto 1440 mins by LC-MS/MS analysis. The conditions noted are these: in vivo. In kind it is ADME, organism-based.
Data set [16] can be described thus: AUC (0 to last) in Sprague-Dawley rat at 20 mg/kg, po measured upto 1440 mins by LC-MS/MS analysis. In kind it is ADME, organism-based. More on the design: time < 1440 min, dose 20 mg/kg, route po. The following applies: in vivo.
Data set [17] is described as follows: Drug uptake in Sprague-Dawley rat brain at 50 mg/kg, po measured at 0.5 hrs by LC-MS/MS analysis. In kind it is ADME, organism-based. The conditions noted are these: read-out: Drug uptake.
The nature of data set [18]: Tmax in CD-1 (ICR) mouse at 50 mg/kg, po measured upto 1440 mins by LC-MS/MS analysis. The conditions noted are these: in vivo. In kind it is ADME, organism-based.
A short description of data set [19]: Inhibition of BCRP in human Caco-2 cells seeded in polyethylene membranes assessed as permeation in presence or absence of E3S measured for 2 hrs by LC-MS/MS analysis based transporter assay. It counts as cell-based.
A short description of data set [20]: Tmax in Sprague-Dawley rat at 20 mg/kg, po measured upto 1440 mins by LC-MS/MS analysis. In kind it is ADME, organism-based. The conditions noted are these: in vivo.
The nature of data set [21]: Half life in Sprague-Dawley rat at 10 mg/kg, iv measured upto 1440 mins by LC-MS/MS analysis. In kind it is ADME, organism-based. The conditions noted are these: in vivo.

Structures are written as SMILES. Active and inactive are the calls of the source. A value given as a limit tells only on which side of the number the result lay.

One may read the inhibition in vivo as the relative decrease from the control value, in per cent. Read a high inhibition in vivo as a response far below the control. As usually defined, the AUC(0-t) is the area under the concentration-time curve up to a stated or last time point. Read a high AUC(0-t) as more exposure. One may read the IC50 as the point on the concentration scale where inhibition reaches its midpoint. For orientation: MRT inf means a mean duration of stay, worked out from the concentration-time curve. Usually bioavailability stands for dose-corrected exposure relative to a reference, in per cent. Higher therefore signals good availability. Broadly, the Tmax is the time from dosing to the highest level. The half-life is the time needed for the level to fall by half in the phase considered. The low end stands for rapid decline, the high end for slow decline.

Chain of ATP-dependent translocase ABCB1 (P08183 whole entry): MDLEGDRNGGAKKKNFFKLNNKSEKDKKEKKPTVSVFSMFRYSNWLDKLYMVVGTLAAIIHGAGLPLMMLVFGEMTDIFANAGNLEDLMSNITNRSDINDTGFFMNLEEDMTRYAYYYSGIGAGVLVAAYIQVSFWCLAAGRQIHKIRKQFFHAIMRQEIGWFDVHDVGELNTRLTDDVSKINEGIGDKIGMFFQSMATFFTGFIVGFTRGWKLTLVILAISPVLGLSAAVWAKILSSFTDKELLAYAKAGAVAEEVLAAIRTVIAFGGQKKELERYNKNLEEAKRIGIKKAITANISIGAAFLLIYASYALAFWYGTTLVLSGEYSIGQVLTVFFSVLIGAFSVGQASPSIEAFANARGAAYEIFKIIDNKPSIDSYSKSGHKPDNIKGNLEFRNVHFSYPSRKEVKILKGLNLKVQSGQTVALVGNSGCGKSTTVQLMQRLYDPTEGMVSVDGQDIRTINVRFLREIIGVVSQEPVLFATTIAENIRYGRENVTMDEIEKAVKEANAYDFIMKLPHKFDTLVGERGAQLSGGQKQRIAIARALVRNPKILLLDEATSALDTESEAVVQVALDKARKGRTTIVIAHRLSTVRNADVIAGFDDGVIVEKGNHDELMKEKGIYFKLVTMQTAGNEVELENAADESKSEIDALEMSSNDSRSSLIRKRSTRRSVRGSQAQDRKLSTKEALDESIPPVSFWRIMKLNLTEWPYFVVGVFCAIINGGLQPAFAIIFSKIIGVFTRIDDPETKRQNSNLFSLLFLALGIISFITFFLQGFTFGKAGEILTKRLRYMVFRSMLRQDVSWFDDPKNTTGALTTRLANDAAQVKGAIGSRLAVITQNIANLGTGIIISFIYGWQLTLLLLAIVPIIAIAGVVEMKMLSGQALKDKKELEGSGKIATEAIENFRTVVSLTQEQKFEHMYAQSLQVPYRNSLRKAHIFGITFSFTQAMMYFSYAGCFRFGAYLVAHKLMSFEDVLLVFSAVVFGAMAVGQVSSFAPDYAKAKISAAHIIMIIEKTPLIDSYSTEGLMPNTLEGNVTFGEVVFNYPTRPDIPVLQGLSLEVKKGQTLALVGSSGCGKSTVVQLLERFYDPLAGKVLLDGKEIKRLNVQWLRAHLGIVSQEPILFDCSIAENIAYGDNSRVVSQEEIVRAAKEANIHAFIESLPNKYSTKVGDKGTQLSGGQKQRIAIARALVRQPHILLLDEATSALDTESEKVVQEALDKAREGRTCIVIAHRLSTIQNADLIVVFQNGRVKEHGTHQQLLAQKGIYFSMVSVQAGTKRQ
Chain of Cytochrome P450 2D6 (P10635 whole entry): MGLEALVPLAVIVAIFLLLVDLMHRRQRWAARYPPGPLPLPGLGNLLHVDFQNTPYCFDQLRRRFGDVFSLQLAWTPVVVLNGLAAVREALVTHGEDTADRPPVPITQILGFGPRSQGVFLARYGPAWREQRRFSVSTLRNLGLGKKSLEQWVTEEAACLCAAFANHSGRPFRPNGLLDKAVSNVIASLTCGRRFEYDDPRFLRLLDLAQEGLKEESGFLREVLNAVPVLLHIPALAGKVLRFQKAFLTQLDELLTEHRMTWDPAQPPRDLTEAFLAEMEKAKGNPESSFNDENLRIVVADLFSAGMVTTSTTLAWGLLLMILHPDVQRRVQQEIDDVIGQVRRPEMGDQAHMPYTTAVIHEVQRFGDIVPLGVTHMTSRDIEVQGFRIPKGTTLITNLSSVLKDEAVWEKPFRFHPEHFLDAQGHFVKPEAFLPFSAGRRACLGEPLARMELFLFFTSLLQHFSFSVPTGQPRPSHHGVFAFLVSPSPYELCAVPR

Turning to `CCn1c(=O)[nH]c(=O)c2c1nc(Cc1cn3cc(C)sc3n1)n2CC1COC1`, the Activity entry in data set [1] was “Non-Toxic”. Further, the outcome in data set [2], in data set [7], in [9], in data set [10] and in data set [12] was inactive. Moreover, in data set [3], the concentration at 2 h was found to be 76 ng/g. Further, at 15 mg/kg the inhibition in vivo in [4] was 50%. Besides, in data set [5], the AUMC is given as 13.6%. For the same molecule, in data set [6], the “inhibition (INH)” value was “Not Active”. Also, the AUC(0-t) at 24 h is 8180 ng·h/mL in data set [8] and 3300 ng·h/mL in [16]. Further, the IC50 in data set [11] and in [19] was > 100 µM throughout. In data set [13], this molecule registered an MRT inf of 1.65 h. Moreover, the concentration at 0.5 h in data set [14] is 1420 ng/mL; in data set [17], 43 ng/g. This molecule also returned a bioavailability in data set [15] of 33%. Also, the values for the Tmax in [18] and in data set [20] were 0.333 h and 0.42 h, respectively. The molecule further had a half-life in [21] of 3.39 h.

(Values after ChEMBL document CHEMBL5370659 (J Med Chem, 2023).)
